# Several values for one entry are separate records, joined by “and”; a condition that tells them apart may be missing. Equal entries are not always repeated.
# Test system: 324938-238-R-J1-PDC complex spheroid viability
# Assay: Anticancer human tumor 324938-238-R-J1-PDC patient-derived bladder carcinoma cell line growth inhibition
# Settings: for viability, T/C: stronger effect = lower value
# Procedure, shortened: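 Multicellular complex spheroids of tumor cells with human endothelial cells (HUVEC) and mesenchymal stem cells; the LSD1 inhibitor iadademstat was combined with standard-of-care or investigational agents. Top concentration at or near clinical Cmax, half-log dilutions; final DMSO ≤0.25%.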
# [1] = curve of first compound, second compound 0.1 µM
# [2] = curve of first compound, second compound 0.316 µM
# [3] = curve of first compound, second compound 1 µM
# [4] = curve of first compound, second compound 3.16 µM
# [5] = curve of first compound, second compound 10 µM
# [6] = second compound 0.1 µM, first compound 0.0316 µM
# [7] = second compound 0.1 µM, first compound 0.1 µM
# [8] = second compound 0.1 µM, first compound 0.316 µM
# [9] = second compound 0.1 µM, first compound 1 µM
# [10] = second compound 0.1 µM, first compound 3.16 µM
# [11] = second compound 0.1 µM, first compound 10 µM
# [12] = second compound 0.316 µM, first compound 0.0316 µM
# [13] = second compound 0.316 µM, first compound 0.1 µM
# [14] = second compound 0.316 µM, first compound 0.316 µM
# [15] = second compound 0.316 µM, first compound 1 µM
# [16] = second compound 0.316 µM, first compound 3.16 µM
# [17] = second compound 0.316 µM, first compound 10 µM
# [18] = second compound 1 µM, first compound 0.0316 µM
# [19] = second compound 1 µM, first compound 0.1 µM
# [20] = second compound 1 µM, first compound 0.316 µM
# [21] = second compound 1 µM, first compound 1 µM
# [22] = second compound 1 µM, first compound 3.16 µM
# [23] = second compound 1 µM, first compound 10 µM
# [24] = second compound 3.16 µM, first compound 0.0316 µM
# [25] = second compound 3.16 µM, first compound 0.1 µM
# [26] = second compound 3.16 µM, first compound 0.316 µM
# [27] = second compound 3.16 µM, first compound 1 µM
# [28] = second compound 3.16 µM, first compound 3.16 µM
# [29] = second compound 3.16 µM, first compound 10 µM
# [30] = second compound 10 µM, first compound 0.0316 µM
# [31] = second compound 10 µM, first compound 0.1 µM
# [32] = second compound 10 µM, first compound 0.316 µM
# [33] = second compound 10 µM, first compound 1 µM
# [34] = second compound 10 µM, first compound 3.16 µM
# [35] = second compound 10 µM, first compound 10 µM
# 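Further: spheroids also contain HUVEC and human MSCs and agents combined with iadademstat; spheroids exposed to agents for 7 days before readout.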
compound,measurement,setting,value
COc1ccc([C@@H](O)c2cc(-c3ncnc4cc(N5CCOCC5)ccc34)c(F)cc2Cl)nn1,"viability, T/C",compound 0.0316 µM,102%
same,"viability, T/C",compound 0.1 µM,95.8% and 99.8%
same,"viability, T/C",compound 0.316 µM,86.6% and 81.7%
same,"viability, T/C",compound 1 µM,69.1% and 64.7%
same,"viability, T/C",compound 3.16 µM,50.8% and 45.9%
same,"viability, T/C",compound 10 µM,32.3% and 27.2%
same,IC50,curve of compound,3240 nM and 2340 nM
CC1COCCN1c1cc(C2(S(C)(=N)=O)CC2)nc(-c2ccnc3[nH]ccc23)n1 (stereo not given) + NC1CC1c1ccc(-c2cccc(O)c2)cc1,IC50,[1],507 nM
same,IC50,[2],301 nM
same,IC50,[3],304 nM
same,IC50,[4],374 nM
same,IC50,[5],294 nM
same,"viability, T/C",[6],86.1%
same,"viability, T/C",[7],81.3%
same,"viability, T/C",[8],58.3%
same,"viability, T/C",[9],35.9%
same,"viability, T/C",[10],18%
same,"viability, T/C",[11],8.83%
same,"viability, T/C",[12],80.1%
same,"viability, T/C",[13],71%
same,"viability, T/C",[14],46.3%
same,"viability, T/C",[15],30.8%
same,"viability, T/C",[16],20.5%
same,"viability, T/C",[17],8.77%
same,"viability, T/C",[18],74.5%
same,"viability, T/C",[19],65.3%
same,"viability, T/C",[20],47.9%
same,"viability, T/C",[21],34.6%
same,"viability, T/C",[22],21.8%
same,"viability, T/C",[23],9.55%
same,"viability, T/C",[24],67.6%
same,"viability, T/C",[25],71.5%
same,"viability, T/C",[26],47.8%
same,"viability, T/C",[27],35.9%
same,"viability, T/C",[28],22.2%
same,"viability, T/C",[29],10.4%
same,"viability, T/C",[30],75%
same,"viability, T/C",[31],66.1%
same,"viability, T/C",[32],45.7%
same,"viability, T/C",[33],36.4%
same,"viability, T/C",[34],21.2%
same,"viability, T/C",[35],12.2%
Cn1ncnc1C1c2n[nH]c(=O)c3cc(F)cc(c23)NC1c1ccc(F)cc1 (stereo not given) + NC1CC1c1ccc(-c2cccc(O)c2)cc1,IC50,[1],37.8 nM
same,IC50,[2],52.3 nM
same,IC50,[3],46.1 nM
same,IC50,[4],59.6 nM
same,IC50,[5],59.8 nM
same,"viability, T/C","second compound 0.1 µM, first compound 0.000316 µM",82.2%
same,"viability, T/C","second compound 0.1 µM, first compound 0.001 µM",91%
same,"viability, T/C","second compound 0.1 µM, first compound 0.00316 µM",78.1%
same,"viability, T/C","second compound 0.1 µM, first compound 0.01 µM",76.7%
same,"viability, T/C",[6],50.8%
same,"viability, T/C",[7],43.1%
same,"viability, T/C","second compound 0.316 µM, first compound 0.000316 µM",88.3%
same,"viability, T/C","second compound 0.316 µM, first compound 0.001 µM",65.7%
same,"viability, T/C","second compound 0.316 µM, first compound 0.00316 µM",69.3%
same,"viability, T/C","second compound 0.316 µM, first compound 0.01 µM",61.9%
same,"viability, T/C",[12],50%
same,"viability, T/C",[13],47%
same,"viability, T/C","second compound 1 µM, first compound 0.000316 µM",70%
same,"viability, T/C","second compound 1 µM, first compound 0.001 µM",71.1%
same,"viability, T/C","second compound 1 µM, first compound 0.00316 µM",66.4%
same,"viability, T/C","second compound 1 µM, first compound 0.01 µM",62.3%
same,"viability, T/C",[18],53.8%
same,"viability, T/C",[19],41.8%
same,"viability, T/C","second compound 3.16 µM, first compound 0.000316 µM",76.1%
same,"viability, T/C","second compound 3.16 µM, first compound 0.001 µM",73.1%
same,"viability, T/C","second compound 3.16 µM, first compound 0.00316 µM",63.9%
same,"viability, T/C","second compound 3.16 µM, first compound 0.01 µM",63.1%
same,"viability, T/C",[24],48.6%
same,"viability, T/C",[25],49.2%
same,"viability, T/C","second compound 10 µM, first compound 0.000316 µM",64.1%
same,"viability, T/C","second compound 10 µM, first compound 0.001 µM",68%
same,"viability, T/C","second compound 10 µM, first compound 0.00316 µM",64%
same,"viability, T/C","second compound 10 µM, first compound 0.01 µM",60.4%
same,"viability, T/C",[30],47%
same,"viability, T/C",[31],50%
CCN(c1cc(-c2ccc(CN3CCOCC3)cc2)cc(C(=O)NCc2c(C)cc(C)[nH]c2=O)c1C)C1CCOCC1,"viability, T/C",compound 0.00949 µM,100% and 111%
same,"viability, T/C",compound 0.03 µM,105%
same,"viability, T/C",compound 0.0949 µM,96.9% and 101%
same,"viability, T/C",compound 0.3 µM,96.7% and 97.5%
same,"viability, T/C",compound 0.949 µM,94.5% and 98.9%
same,"viability, T/C",compound 3 µM,91.2% and 99%
same,IC50,curve of compound,> 3000 nM
O=C(C=Cc1cccc(S(=O)(=O)Nc2ccccc2)c1)NO,"viability, T/C",compound 0.00949 µM,95.5% and 107%
same,"viability, T/C",compound 0.03 µM,89.1% and 92.1%
same,"viability, T/C",compound 0.0949 µM,71% and 70%
same,"viability, T/C",compound 0.3 µM,46.1% and 42.8%
same,"viability, T/C",compound 0.949 µM,26.1% and 24.2%
same,"viability, T/C",compound 3 µM,4.98% and 3.24%
same,IC50,curve of compound,273 nM and 237 nM
O=C(C=Cc1cccc(S(=O)(=O)Nc2ccccc2)c1)NO + NC1CCC(NC2CC2c2ccccc2)CC1,IC50,[1],103 nM
same,IC50,[2],101 nM
same,IC50,[3],41.7 nM
same,IC50,[4],47.2 nM
same,IC50,[5],10.4 nM
same,"viability, T/C","second compound 0.1 µM, first compound 0.00949 µM",68%
same,"viability, T/C","second compound 0.1 µM, first compound 0.03 µM",59.9%
same,"viability, T/C","second compound 0.1 µM, first compound 0.0949 µM",51.5%
same,"viability, T/C","second compound 0.1 µM, first compound 0.3 µM",37.4%
same,"viability, T/C","second compound 0.1 µM, first compound 0.949 µM",26.7%
same,"viability, T/C","second compound 0.1 µM, first compound 3 µM",7.18%
same,"viability, T/C","second compound 0.316 µM, first compound 0.00949 µM",61.6%
same,"viability, T/C","second compound 0.316 µM, first compound 0.03 µM",63.2%
same,"viability, T/C","second compound 0.316 µM, first compound 0.0949 µM",50.4%
same,"viability, T/C","second compound 0.316 µM, first compound 0.3 µM",34.6%
same,"viability, T/C","second compound 0.316 µM, first compound 0.949 µM",25.9%
same,"viability, T/C","second compound 0.316 µM, first compound 3 µM",5.69%
same,"viability, T/C","second compound 1 µM, first compound 0.00949 µM",64.6%
same,"viability, T/C","second compound 1 µM, first compound 0.03 µM",49.9%
same,"viability, T/C","second compound 1 µM, first compound 0.0949 µM",40.8%
same,"viability, T/C","second compound 1 µM, first compound 0.3 µM",32.1%
same,"viability, T/C","second compound 1 µM, first compound 0.949 µM",26%
same,"viability, T/C","second compound 1 µM, first compound 3 µM",3.87%
same,"viability, T/C","second compound 3.16 µM, first compound 0.00949 µM",65.3%
same,"viability, T/C","second compound 3.16 µM, first compound 0.03 µM",53.5%
same,"viability, T/C","second compound 3.16 µM, first compound 0.0949 µM",40%
same,"viability, T/C","second compound 3.16 µM, first compound 0.3 µM",33.8%
same,"viability, T/C","second compound 3.16 µM, first compound 0.949 µM",24.7%
same,"viability, T/C","second compound 3.16 µM, first compound 3 µM",4.61%
same,"viability, T/C","second compound 10 µM, first compound 0.00949 µM",52.7%
same,"viability, T/C","second compound 10 µM, first compound 0.03 µM",47.2%
same,"viability, T/C","second compound 10 µM, first compound 0.0949 µM",42.2%
same,"viability, T/C","second compound 10 µM, first compound 0.3 µM",34.4%
same,"viability, T/C","second compound 10 µM, first compound 0.949 µM",30.8%
same,"viability, T/C","second compound 10 µM, first compound 3 µM",3.5%
CC(C)c1c(-c2ccccc2)nc2c(C#N)c[nH]n2c1=O + NC1CCC(NC2CC2c2ccccc2)CC1,IC50,[1],> 10000 nM
same,IC50,[2],> 10000 nM
same,IC50,[3],> 10000 nM
same,IC50,[4],> 10000 nM
same,IC50,[5],> 10000 nM
same,"viability, T/C",[6],69.7%
same,"viability, T/C",[7],90%
same,"viability, T/C",[8],85.2%
same,"viability, T/C",[9],89.2%
same,"viability, T/C",[10],82.2%
same,"viability, T/C",[11],74.6%
same,"viability, T/C",[12],83%
same,"viability, T/C",[13],84.1%
same,"viability, T/C",[14],84.4%
same,"viability, T/C",[15],84.8%
same,"viability, T/C",[16],81.4%
same,"viability, T/C",[17],78.7%
same,"viability, T/C",[18],87%
same,"viability, T/C",[19],90%
same,"viability, T/C",[20],78.2%
same,"viability, T/C",[21],84.9%
same,"viability, T/C",[22],81.6%
same,"viability, T/C",[23],80.9%
same,"viability, T/C",[24],72.8%
same,"viability, T/C",[25],78.9%
same,"viability, T/C",[26],87.7%
same,"viability, T/C",[27],80.6%
same,"viability, T/C",[28],80.1%
same,"viability, T/C",[29],74.3%
same,"viability, T/C",[30],66.5%
same,"viability, T/C",[31],70.7%
same,"viability, T/C",[32],75.9%
same,"viability, T/C",[33],75.1%
same,"viability, T/C",[34],65.6%
same,"viability, T/C",[35],77.9%
CC1(C)CCC(CN2CCN(c3ccc(C(=O)NS(=O)(=O)c4ccc(NCC5CCOCC5)c([N+](=O)[O-])c4)c(Oc4cnc5[nH]ccc5c4)c3)CC2)=C(c2ccc(Cl)cc2)C1,"viability, T/C",compound 0.0316 µM,99% and 104%
same,"viability, T/C",compound 0.1 µM,102% and 108%
same,"viability, T/C",compound 0.316 µM,107% and 109%
same,"viability, T/C",compound 1 µM,103% and 90.5%
same,"viability, T/C",compound 3.16 µM,90.8% and 83%
same,"viability, T/C",compound 10 µM,28.4% and 20.4%
same,IC50,curve of compound,6730 nM and 5650 nM
CC(C)c1c(-c2ccccc2)nc2c(C#N)c[nH]n2c1=O,"viability, T/C",compound 0.0316 µM,98.8% and 110%
same,"viability, T/C",compound 0.1 µM,108% and 110%
same,"viability, T/C",compound 0.316 µM,96.5% and 120%
same,"viability, T/C",compound 1 µM,92.4% and 107%
same,"viability, T/C",compound 3.16 µM,89.5% and 95.7%
same,"viability, T/C",compound 10 µM,81.7% and 80.9%
same,IC50,curve of compound,> 10000 nM
